Article PMC6803640, “Oligomeric state, hydrodynamic properties and target recognition of human Calcium and Integrin Binding protein 2 (CIB2)” (Scientific Reports, 2019)
Where a SMILES comes first, the peptide text is derived from it.

T1: human CIB2 (Homo sapiens, UniProt O75838)
T1 construct: made in house
T1 sequence (O75838 1-187): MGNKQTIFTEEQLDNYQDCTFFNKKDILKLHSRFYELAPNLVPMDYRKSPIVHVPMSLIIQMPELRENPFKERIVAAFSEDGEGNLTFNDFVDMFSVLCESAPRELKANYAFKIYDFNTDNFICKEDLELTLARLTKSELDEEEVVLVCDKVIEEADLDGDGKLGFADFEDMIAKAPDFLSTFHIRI

B1: CIB2: Recombinant human CIB2, Ca^2+ and Mg^2+-binding protein (protein)
chain: T1 sequence (O75838 1-187)
modifications: left off: His tag, end not stated, cleaved

Assays:
human CIB2 = target: T1, human CIB2; assay: Cross-linking (DSBU)/MALDI-TOF-MS of CIB2 with α7B peptides; assay type: binding
Experimental: CIB2 samples were cross-linked with DSBU in the presence of peptide α7B_M or α7B_Scrb as described in ref.[14] Briefly, 10 µM CIB2 was diluted in 20 mM HEPES, pH 7.5, 1 mM DTT, 1 mM Mg^2+ and 2 mM Ca^2+ and incubated with increasing peptide concentrations (5 µM, 10 µM, and 20 µM) for 10 min at room temperature. Then, 50-fold molar excess of DSBU was added and the reactions were conducted for 20 min at room temperature. As control, CIB2 was treated with DSBU without peptide. Reactions were blocked by adding ammonium bicarbonate to a final concentration of 20 mM.
Cross-linked CIB2 samples were desalted via ZipTip C4 tips (Millipore) before MALDI-TOF-MS analysis (Ultraflex III MALDI-TOF/TOF mass spectrometer, Bruker Daltonik, Bremen) was conducted using sinapinic acid as matrix. For further details see Supplementary Methods. Baseline subtraction and spectra smoothing were performed. […]
Cross-linking reactions and Mass Spectrometry
Cross-linking reactions were performed with 10 µM CIB2 (in 20 mM HEPES pH 7.5, 150 mM KCl, 1 mM DTT, 1 mM Mg2+, 2 mM Ca2+) and increasing concentrations of peptides α7B_M and α7B_Scrb, ranging from 0.5:1 to 2:1 peptide:protein ratios. After incubating the samples for 10 minutes at room temperature, DSBU (freshly prepared solution, dissolved in neat DMSO) was added to the mixture at 50-fold molar excess compared to CIB2 concentration. As the final volume of the reaction mixture was 50 µL, 1 µL of 25 mM DSBU was added to each sample. After 20 minutes, the cross-linking reactions were quenched by adding ammonium bicarbonate to a final concentration of 20 mM. Samples were incubated for 10 minutes before SDS-PAGE analysis was performed (data not shown). Samples for MALDI-TOF-MS measurements were desalted by ZipTip C4 (Millipore) and desalted protein was eluted with 70% (v/v) acetonitrile / 1% (v/v) formic acid. Each sample was mixed with a saturated solution of sinapinic acid (in 50% (v/v) methanol / 0.1% (v/v) TFA) at 1:1 ratio and spotted onto the MALDI target. […]

CIB2 = details: cited from earlier work
Excerpt: In a recent study[8] we investigated the capability of CIB2 to bind Ca^2+ and Mg^2+ thereby switching to a functionally distinct structural state. By integrating several biochemical and biophysical techniques we could establish that in the absence of any cation CIB2 forms a molten globule state that essentially lacks tertiary structure. […] This is quite unusual for Ca^2+-sensor pro ... || The second approach (direct peptide immobilization) led to very low signals and unreproducible results and was not pursued any further. […] In spite of such differences, which might ... || Interaction with α7B occurs in the region proximal to the membrane and not close to the C-terminus of the cytosolic domain of the integrin. The recognition between CIB2 and the α7B target is kinetically favored in the presence of physiological Mg^2+ and in the absence of Ca^2+ and it might induce binding of another CIB2 molecule. […] However, CIB2 per se binds a single peptide as a monomer, and the complex could then induce CIB2 dimerization, ...

Molecule	1:2 CIB2/peptide complex (human CIB2; 10 µM CIB2, 5, 10, 20 µM peptide, 50-fold DSBU, 1 mM Mg^2+, 2 mM Ca^2+)	CIB2/peptide complex formation, 1:1 (human CIB2; 10 µM CIB2, 5, 10, 20 µM peptide, 50-fold DSBU, 20 mM HEPES pH 7.5, 1 mM Mg^2+, 2 mM Ca^2+, room temperature)	2:1 CIB2 and peptide complex (human CIB2; cross-linking experiments with DSBU, 1 mM Mg^2+, 2 mM Ca^2+)	fluorescence titration of CIB2 (CIB2; peptide intrinsic fluorescence)	oligomeric state by MS and XL-MS (human CIB2; all tested conditions, MS and XL-MS)	CIB2:target peptide stoichiometry (CIB2; fluorescence)
CSCC[C@H](NC(=O)[C@H](CCCCN)NC(=O)[C@H](Cc1c[nH]c2ccccc12)NC(=O)[C@H](CC(C)C)NC(=O)[C@H](CC(C)C)NC(=O)[C@H](CC(C)C)NC(C)=O)C(=O)NCC(=O)N[C@@H](Cc1ccccc1)C(=O)N[C@@H](Cc1ccccc1)C(=O)N[C@@H](CCCCN)C(=O)N[C@@H](CCCNC(=N)N)C(=O)N[C@@H](C)C(=O)N[C@@H](CCCCN)C(=O)N[C@@H](Cc1c[nH]cn1)C(=O)N1CCC[C@H]1C(=O)N[C@@H](CCC(=O)O)C(N)=O [α7B_M] (Ac-LLLWKMGFFKRAKHPE-NH2)	A weak signal	a 1:1 CIB2/peptide complex appears in the mass spectra	never observed	fluorescence variation upon titration with α7B_M was much higher	–	–
B1	–	–	–	–	remained monomeric in all tested conditions	2:1 stoichiometry
